The subject of the assay is P388 leukemia ip, CD2F1 mice, survival T/C. The assay is described as follows: NCI In Vivo Anticancer Drug Screen. Data for tumor model P388 Leukemia (intraperitoneal) in CD2F1 (CDF1) mice. The following applies: endpoint: median survival time, higher = longer survival. In short, it runs like this: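 Mice carrying the transplanted tumor received test compound or vehicle. Survival was recorded in each group, and the value is the treated-group measurement divided by that of the vehicle-treated control group.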

Setting [1] is: dose: 50.0 mg/kg/injection, schedule: Q01DX009 (ip), vehicle: Klucel (hydroxypropylcellulose) (HPC).
The mark [2] stands for this setting: dose: 100.0 mg/kg/injection, schedule: Q01DX009 (ip), vehicle: Klucel (hydroxypropylcellulose) (HPC).
[3] abbreviates: dose: 12.5 mg/kg/injection, schedule: Q01DX009 (ip), vehicle: Klucel (hydroxypropylcellulose) (HPC).
[4] abbreviates: dose: 25.0 mg/kg/injection, schedule: Q01DX009 (ip), vehicle: Klucel (hydroxypropylcellulose) (HPC).
Setting [5] is: dose: 100.0 mg/kg/injection, schedule: Q04DX002 (ip), vehicle: saline.
Setting [6] is: dose: 200.0 mg/kg/injection, schedule: Q04DX002 (ip), vehicle: saline.
The mark [7] stands for this setting: dose: 400.0 mg/kg/injection, schedule: Q04DX002 (ip), vehicle: saline.
The mark [8] stands for this setting: dose: 25.0 mg/kg/injection, schedule: Q01DX005 (ip), vehicle: Klucel (hydroxypropylcellulose) (HPC).
Setting [9] is: dose: 50.0 mg/kg/injection, schedule: Q01DX005 (ip), vehicle: Klucel (hydroxypropylcellulose) (HPC).
Setting [10] is: dose: 12.5 mg/kg/injection, schedule: Q01DX009 (ip), vehicle: saline.
The mark [11] stands for this setting: dose: 25.0 mg/kg/injection, schedule: Q01DX009 (ip), vehicle: saline.
Setting [12] is: dose: 50.0 mg/kg/injection, schedule: Q01DX009 (ip), vehicle: saline.
Setting [13] is: dose: 100.0 mg/kg/injection, schedule: Q01DX009 (ip), vehicle: saline.
Setting [14] is: dose: 200.0 mg/kg/injection, schedule: Q01DX009 (ip), vehicle: saline.

SMILES strings stand for the structures. Values joined by “and” are separate entries in the source; they are usually repeats but may differ in a detail not shown here. Equal values may be shown once. Inconclusive results and toxic doses are left out.

Consider `Nc1nc(N)c(N)c(N)n1`, for which the T/C reads like this: (dose: 50.0 mg/kg/injection, schedule: Q04DX003 (ip), vehicle: saline with Tween-80) 98 % of control; (dose: 100.0 mg/kg/injection, schedule: Q04DX003 (ip), vehicle: saline with Tween-80) 104 % of control; (dose: 200.0 mg/kg/injection, schedule: Q04DX003 (ip), vehicle: saline with Tween-80) 97 % of control; (dose: 400.0 mg/kg/injection, schedule: Q04DX003 (ip), vehicle: saline with Tween-80) 96 % of control.
Take `CCN(CC)c1c(C)c(-c2ccccc2)oc(=O)c1-c1ccccc1`: the T/C by setting is: under setting [1], 105 % of control; under setting [2], 100 % of control; (dose: 200.0 mg/kg/injection, schedule: Q01DX009 (ip), vehicle: Klucel (hydroxypropylcellulose) (HPC)) 100 % of control.
As to `C[S+](C)CCCNC(=O)c1csc(-c2csc(-c3ccccc3)n2)n1`, the T/C (dose: 6.25 mg/kg/injection, schedule: Q01DX005 (ip), vehicle: water) is 100 % of control; the T/C (dose: 12.5 mg/kg/injection, schedule: Q01DX005 (ip), vehicle: water) was 107 % of control; the T/C (dose: 25.0 mg/kg/injection, schedule: Q01DX005 (ip), vehicle: water) is 106 % of control.
Regarding `Clc1c2ccccc2[se][n+]1Cc1ccccc1`, the T/C by setting is: under setting [3], 104 % of control and 108 % of control and 111 % of control; under setting [4], 105 % of control and 106 % of control and 112 % of control; under setting [1], 105 % of control and 107 % of control and 121 % of control; under setting [2], 106 % of control and 110 % of control.
For the compound `CC1CCC2(NC1)OC1CC3C4CCC5CC(N)CCC5(C)C4CCC3(C)C1C2C` (centres undefined), the T/C reads like this: (dose: 6.25 mg/kg/injection, schedule: Q01DX009 (ip), vehicle: Klucel (hydroxypropylcellulose) (HPC)) 105 % of control; under setting [3], 95 % of control; under setting [4], 106 % of control; under setting [1], 110 % of control.
For the compound `CC(C)(C)C1(c2ccccc2)C(=O)c2ccccc2C1=O`, the T/C is, setting by setting: under setting [5], 100 % of control; under setting [6], 97 % of control; under setting [7], 101 % of control.
In the case of `[CH3][Bi]1[O]C(=O)c2ccccc2[S]1`, the T/C under setting [8] was 99 % of control and 102 % of control and 97 % of control.
`CC(C)CS(=O)(=O)OCCCCOS(=O)(=O)CC(C)C`: the T/C by setting is: under setting [9], 115 % of control; (dose: 100.0 mg/kg/injection, schedule: Q01DX005 (ip), vehicle: Klucel (hydroxypropylcellulose) (HPC)) 111 % of control.
For `CN(C)CCCNC1C(C2COC(C)(C)O2)OC2OC(C)(C)OC21` (centres undefined), the T/C runs as follows: under setting [5], 97 % of control; under setting [6], 95 % of control; under setting [7], 93 % of control.
As to `O=c1oc2ccccc2n1Cc1ccc(Cl)cc1`, the T/C was 102 % of control (dose: 6.25 mg/kg/injection, schedule: Q01DX005 (ip), vehicle: saline with Tween-80); 93 % of control (dose: 12.5 mg/kg/injection, schedule: Q01DX005 (ip), vehicle: saline with Tween-80); 99 % of control (dose: 25.0 mg/kg/injection, schedule: Q01DX005 (ip), vehicle: saline with Tween-80).
As for `CC(=O)OC1CC2C3(C)CCC4C(C)(C)CCCC4(C)C3CC(O)C2(C)C2C1=COC2OC(C)=O` (centres undefined), the T/C by setting is: (dose: 15.0 mg/kg/injection, schedule: Q01DX005 (ip), vehicle: Klucel (hydroxypropylcellulose) (HPC)) 102 % of control; (dose: 30.0 mg/kg/injection, schedule: Q01DX005 (ip), vehicle: Klucel (hydroxypropylcellulose) (HPC)) 120 % of control.
On to `CC1(C)C(=O)NC(=O)c2ccccc21`, for which the T/C was 107 % of control (dose: 12.5 mg/kg/injection, schedule: Q01DX005 (ip), vehicle: Klucel (hydroxypropylcellulose) (HPC)); 107 % of control under setting [8]; 100 % of control and 102 % of control under setting [9].
As to `Clc1ccc(C(Nc2nncs2)Nc2nncs2)cc1Cl`, the T/C was 94 % of control (dose: 60.0 mg/kg/injection, schedule: Q01DX005 (ip), vehicle: Klucel (hydroxypropylcellulose) (HPC)); 96 % of control (dose: 120.0 mg/kg/injection, schedule: Q01DX005 (ip), vehicle: Klucel (hydroxypropylcellulose) (HPC)); 102 % of control (dose: 240.0 mg/kg/injection, schedule: Q01DX005 (ip), vehicle: Klucel (hydroxypropylcellulose) (HPC)).
`CCC1(c2ccccc2)CCCC/C1=N/Nc1ccc([N+](=O)[O-])cc1[N+](=O)[O-]` (centres undefined): the T/C (dose: 100.0 mg/kg/injection, schedule: Q04DX003 (ip), vehicle: Klucel (hydroxypropylcellulose) (HPC)) was 91 % of control; the T/C (dose: 200.0 mg/kg/injection, schedule: Q04DX003 (ip), vehicle: Klucel (hydroxypropylcellulose) (HPC)) was 92 % of control; the T/C (dose: 400.0 mg/kg/injection, schedule: Q04DX003 (ip), vehicle: Klucel (hydroxypropylcellulose) (HPC)) is 99 % of control.
For `C/C=C1/CN2CC[C@@]34c5cc([C@]67C8CCN9C/C(=C/C)[C@H](CC96)C(C(=O)OC)N7c6ccccc68)c(OC)cc5N(C)[C@H]3C2CC1C4C(=O)OC` (some centres undefined), the T/C runs as follows: (dose: 5.25 mg/kg/injection, schedule: Q01DX005 (ip), vehicle: Klucel (hydroxypropylcellulose) (HPC)) 104 % of control; (dose: 10.5 mg/kg/injection, schedule: Q01DX005 (ip), vehicle: Klucel (hydroxypropylcellulose) (HPC)) 98 % of control; (dose: 21.0 mg/kg/injection, schedule: Q01DX005 (ip), vehicle: Klucel (hydroxypropylcellulose) (HPC)) 90 % of control; (dose: 42.0 mg/kg/injection, schedule: Q01DX005 (ip), vehicle: Klucel (hydroxypropylcellulose) (HPC)) 96 % of control.
As for `Oc1c(CN2CCCC2)cc(Nc2nccc(/C=C/c3ccc(Cl)cc3)n2)cc1CN1CCCC1`, the T/C is, setting by setting: (dose: 6.25 mg/kg/injection, schedule: Q01DX009 (ip), vehicle: saline) 106 % of control; under setting [10], 106 % of control; under setting [11], 110 % of control; under setting [12], 114 % of control.
Consider `Cc1cc(CCO)n[nH]1`, for which the T/C is, setting by setting: under setting [12], 97 % of control; under setting [13], 100 % of control; under setting [14], 100 % of control.
As to `O=S(=O)(OCC(O)C1OCC(O)C1O)c1ccccc1` (centres undefined), the T/C runs as follows: under setting [12], 98 % of control; under setting [13], 100 % of control; under setting [14], 105 % of control.
As for `Cc1ccc(S(=O)(=O)[n+]2ccccc2)cc1`, the T/C was 104 % of control (dose: 100.0 mg/kg/injection, schedule: Q01DX001 (ip), vehicle: saline); 100 % of control (dose: 200.0 mg/kg/injection, schedule: Q01DX001 (ip), vehicle: saline); 100 % of control (dose: 400.0 mg/kg/injection, schedule: Q01DX001 (ip), vehicle: saline).
With `CCOC(=O)C(=CN(C)c1ccccc1)C(=O)OCC`, the T/C by setting is: (dose: 50.0 mg/kg/injection, schedule: Q01DX009 (ip), vehicle: saline with Tween-80) 108 % of control; (dose: 100.0 mg/kg/injection, schedule: Q01DX009 (ip), vehicle: saline with Tween-80) 108 % of control; (dose: 200.0 mg/kg/injection, schedule: Q01DX009 (ip), vehicle: saline with Tween-80) 101 % of control.
On to `CCOC(=O)C([NH-])C([NH-])C(=O)OCC.[Cl][Pt+2][Cl]` (centres undefined), for which the T/C is, setting by setting: (dose: 12.5 mg/kg/injection, schedule: Q04DX002 (ip), vehicle: saline with Tween-80) 163 % of control; (dose: 25.0 mg/kg/injection, schedule: Q04DX002 (ip), vehicle: saline with Tween-80) 164 % of control.
Consider `CC(=O)OC1C=CC(O)N(C(C)=O)C1SC1C2CC3CC(C2)CC1C3` (centres undefined), for which the T/C is 101 % of control (dose: 100.0 mg/kg/injection, schedule: Q04DX003 (ip), vehicle: saline); 101 % of control (dose: 200.0 mg/kg/injection, schedule: Q04DX003 (ip), vehicle: saline); 108 % of control (dose: 400.0 mg/kg/injection, schedule: Q04DX003 (ip), vehicle: saline).
`Cc1ccc(C(C)C)c2c1CN(CCN1COc3c(C(C)C)ccc(C)c3C1)CO2`: the T/C is, setting by setting: (dose: 15.0 mg/kg/injection, schedule: Q01DX005 (ip), vehicle: saline with Tween-80) 99 % of control; (dose: 30.0 mg/kg/injection, schedule: Q01DX005 (ip), vehicle: saline with Tween-80) 98 % of control; (dose: 60.0 mg/kg/injection, schedule: Q01DX005 (ip), vehicle: saline with Tween-80) 91 % of control.
Turning to `Nc1ccc2c(c1)C1C(C3C2C2(Cl)C(Cl)=C(Cl)C3(Cl)C2(Cl)Cl)C2(Cl)C(Cl)=C(Cl)C1(Cl)C2(Cl)Cl` (centres undefined), the T/C runs as follows: under setting [10], 97 % of control; under setting [11], 109 % of control; under setting [12], 100 % of control and 95 % of control; under setting [13], 100 % of control; under setting [14], 98 % of control.

Values taken from PubChem BioAssay AID330 (DTP/NCI, 2004).
